In US9757334B2, “Surfactant-stripped micelle compositions with high cargo to surfactant ratio” (The Research Foundation for The State University of New York, priority 2014, dated 2017):

Assay: Absorbance and peak shift of concentrated solutions
Type: physicochemical
Details: 1000 OD/mL in 10 μm path length versus 1000 fold dilution
Method: Characterization of Nanonap Physical and Optical Properties: Size and zeta potential measurement were carried out using dynamic light scattering with a Nano ZS90 Zetasizer (Malvern Instruments). Transmission electron microscopy was performed using a JEM-2010 electron microscope to determine the morphology of an aqueous dispersion of nanonaps negatively stained with 1% uranyl acetate. Absorbance was measured by with a Lambda 35 UV/VIS spectrophotometer (Perkin Elmer) at room temperature using cuvettes with 1 cm path lengths, except for the high-concentrated spectral shifting analysis which used 10 μm path-length cuvettes.
1 Pc and 3 Nc dyes were identified that gave rise to nanonaps with peaks at 600, 707, 793 and 863 nm (FIG. 25a, b). The nanonaps generated absorption spanning the NIR spectrum while maintaining reasonably narrow full-width half-maxima (50-100 nm). Since PA imaging can resolve multiple absorption wavelengths, multi-wavelength classes of nanoparticles are desirable. The PA spectral response of nanonaps aligned with their absorption spectra (FIG. 35). The nanoparticles could be concentrated into fully soluble solutions with absorptions of greater than 1000. […] This was assessed by measuring absorption of a concentrated solution (1000 optical densities (OD)/mL) in a 10 μm path length, and then measuring a 1000 fold dilution of the same solution in a 1 cm path length. […]

- absorption peak shift upon concentration: large absorption shifts
SMILES: CC1(C)C(/C=C/C=C/C=C/C=C2\N(CCCCS(=O)(=O)O)c3ccc4ccccc4c3C2(C)C)=[N+](CCCCS(=O)(=O)[O-])c2ccc3ccccc3c21 [indocyanine green]
